{"source": "patent US8841083B2", "about": "“PSA capture agents, compositions, methods and preparation thereof” (California Institute of Technology, priority 2011, dated 2014)", "key": {"[1]": {"molecular_target": "T1, free PSA (Homo sapiens, UniProt P07288)", "T1 construct": "purchased Scripps Laboratories P0725", "T1 sequence (P07288 25-261)": "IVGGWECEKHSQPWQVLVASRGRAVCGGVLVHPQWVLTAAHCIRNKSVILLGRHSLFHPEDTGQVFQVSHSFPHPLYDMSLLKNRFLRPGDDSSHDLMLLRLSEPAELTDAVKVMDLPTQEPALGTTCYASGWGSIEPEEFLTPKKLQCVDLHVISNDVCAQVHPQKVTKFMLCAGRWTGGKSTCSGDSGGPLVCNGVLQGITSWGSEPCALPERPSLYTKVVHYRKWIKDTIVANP", "test": "Enzyme activity assay of PSA with chymotrypsin substrate Suc-Arg-Pro-Tyr-pNA", "assay_type": "biochemical", "details": "for minimum peptide concentration affecting the activity: PSA 333 nM", "procedure": "The enzyme activity of free PSA was studied in the presence of capture agent and the chymotrypsin substrate Suc-Arg-Pro-Tyr-pNA (AnaSpec, San Jose, Calif.) (see, e.g., Wu 2000). PSA (333 nM) was incubated with a 1-100-fold fold molar excess of capture agent in TBS (25 mM Tris, 150 mM NaCl) buffer, pH 7.8, for 1 hour at 23° C. Separately, the inhibitory effect of Zn^2+ on the enzyme activity of PSA was studied by including 1-200 μM ZnCl2 in the reaction buffer as a control. After addition of substrate to a final concentration 0.4 mM, the absorbance was monitored at 5-min intervals over 80 min at 405 nm on a Beckman Coulter DTX880 photometer (Brea, Calif.). Enzyme activity of PSA was tested in the absence of both Zn^2+ and capture agent to provide a measure of basal activity. All assays were performed in triplicate."}, "[2]": {"molecular_target": "T1, free PSA", "test": "Dot blot of serially diluted free PSA probed with biotinylated capture agent", "assay_type": "binding", "details": "for lower limit of detection: free PSA on nitrocellulose, 0.1 μM capture agent", "procedure": "Serially diluted free PSA (Scripps Laboratories #P0725) in PBS pH 7.4 was applied to nitrocellulose by micropipette. The membrane was blocked at 4° C. for 2 hours in 5% non-fat dry milk in TBS (25 mM Tris, 150 mM NaCl, pH 7.25). The membrane was washed with TBS (3×). The biotinylated PSA capture agent was prepared at 0.1 μM in 0.5% milk in TBS+0.03% DMSO (v/v) and incubated over the membrane at 4° C. overnight. After washing with TBS (3×), the membrane was further subjected to 0.1 μg/mL HRP-conjugated Streptavidin (Abcam) in TBS containing 0.02% Tween20 (v/v) for 30 min at 4° C."}, "[3]": {"molecular_target": "T1, free PSA", "test": "Pull-down assay and Western blot", "assay_type": "binding", "details": "1 μg free PSA in TBS buffer", "procedure": "The pull-down assay assessed the specificity of a PSA capture agent by measuring its ability to purify a protein from complex media; bound to the protein in buffer or human serum in solution. The PSA/capture agent complex was then physically isolated from the sample with solid-phase affinity resins. The captured samples were separated by SDS-PAGE for Western blot analysis.\nPull-down detection of PSA was performed using a modified immunoprecipitation technique that incorporated PSA capture agent rather than antibody. […] A third sample contained biotinylated PSA capture agent (0.3-0.5 μg/mL) and 1 μg free PSA in 2 mL TBS, and similarly interacted at 4° C. overnight.\nProteins were captured by BSA-blocked Dynabeads® M-280 Streptavidin (Invitrogen, #112-05D) under rotation at 4° C. for 4 hours (50 μL of 50% slurry per pull-down condition). Proteins were eluted from beads in reducing Laemmli buffer, and beads were separated from the serum or buffer by DynaMag™-Spin magnet (Invitrogen, #123-20D). Samples were subjected to 4-20% SDS-PAGE separation and electrophoretically transferred to a nitrocellulose membrane in 25 mM Tris, 192 mM Glycine, pH 8.3, containing 20% (v/v) methanol (Bio-Rad Laboratories, Hercules, Calif.) at 100 V for 45 min. Following transfer, the nitrocellulose membrane was blocked at 4° C. for 2 hours in 5% non-fat dry milk in TBS. […]"}, "[4]": {"molecular_target": "T1, free PSA", "test": "Sandwich ELISA with capture agent as detection agent, paired with PS6 capture antibody", "assay_type": "binding", "procedure": "MAXISORP™ microtiter plates were coated with anti-human PSA (PS6, Abcam) at 10 μg/mL in PBS pH 7.4 for 2 hours at room temperature. After washing each microwell with PBS (3×), the plate was filled with 5% non-fat dry milk in TBS (25 mM Tris, 150 mM NaCl, pH 7.25) and blocked for 2 h at room temperature. Serially diluted free PSA (Scripps Laboratories #P0725) in 1% BSA in TBS was incubated across the microtiter plate for 2 h at room temperature. The plate was washed with 1% BSA in TBS (5×), and then 2 μM biotinylated capture agent in 1% BSA in TBS+0.1% DMSO (v/v) was incubated for 1 hour at room temperature. After washing all microwells with 1% BSA in TBS (5×), 0.1 μg/mL Streptavidin Poly-HRP conjugate (Pierce, Ill.) in 1% BSA in TBS was incubated for 30 min at room temperature. The plate was washed with 1% BSA in TBS (10×), followed by TBS (2×), and then developed by adding QuantaRed™ Enhanced Chemifluorescent HRP Substrate (Pierce, Ill.). Using an excitation wavelength of 535 nm, fluorescent emission at 595 nm was recorded by Beckman Coulter DTX880 photometer (Brea, Calif.) as a function of target concentration. The titration curves were fit using a four-parameter regression curve fitting program (Origin 8.5, Northampton, Mass.). Assays were performed in triplicate."}}, "data": [{"compound": "[Cl-].[Cl-].[Zn+2]", "note": "[Zn^2+, zinc chloride, reference compound]", "values": [{"measurement": "inhibition of PSA enzyme activity", "setting": "[1]", "result": "inhibits the enzyme activity of PSA"}]}, {"compound": "biotin-PEG5-cyclic(CVFAHNYDYLVC) [Anchor Ligand]", "values": [{"measurement": "minimum peptide concentration affecting the activity", "setting": "[1]", "result": 0.250, "unit": "µM"}]}, {"compound": "biotin-PEG5-cyclic(CVFAHNYDYLVC)-Tz5-Gllffk [1,5Tz-biligand]", "values": [{"measurement": "minimum peptide concentration affecting the activity", "setting": "[1]", "result": 0.159, "unit": "µM"}, {"measurement": "limit of detection compared to 1,4Tz-biligand", "setting": "[2]; dot blot, triazole regioisomers", "result": "improved limit of detection"}, {"measurement": "lower limit of detection", "setting": "[2]", "result": 0.14, "unit": "µg"}]}, {"compound": "biotin-PEG5-cyclic(CVFAHNYDYLVC)-Tz5-Gllffk-Tz5-rrivk [PSA capture agent triligand]", "values": [{"measurement": "performance compared to anti-human PSA monoclonal antibody PS1", "setting": "[2]; dot blot", "result": "superior performance"}, {"measurement": "sensitivity compared to commercial PSA monoclonal antibodies PS2, PS6", "setting": "[2]; dot blot", "result": "less sensitive"}, {"measurement": "lower limit of detection", "setting": "[2]", "result": 0.14, "unit": "µg"}, {"measurement": "pull-down detection of free PSA", "setting": "[3]", "result": "detected free PSA in buffer"}, {"measurement": "limit of quantitation (LOQ)", "setting": "[4]; free PSA, sandwich ELISA with PS6 capture antibody", "result": "~4", "unit": "ng/mL"}, {"measurement": "enhanced sensitivity over the PSA capture agent biligand", "setting": "[4]; sandwich ELISA", "result": "> 2", "unit": "fold"}]}, {"compound": "biotin-PEG5-cyclic(CVFAHNYDYLVC)-Tz-4-Gllffk [1,4Tz-biligand]", "values": [{"measurement": "lower limit of detection", "setting": "[2]", "result": 0.28, "unit": "µg"}]}]}
